Results: patent US20160354402A1, “COMPOSITIONS” (GLOBALACORN LTD, priority 2013, published 2016)
“Also recorded” adds a separate entry of the source.

What was measured:
[1] = tested on: L5 interneurons in cortical slices from Tsc1+/− mice; assay: Ex vivo whole-cell patch-clamp recordings in cortical slices from Tsc1+/− mice; type: cell-based, mouse
Method: Wild type and Tsc1^+/− mice (P14-P16) were anaesthetized with ether and killed by decapitation in agreement with the European Directive 86/609/EEC requirements. The brain was rapidly removed and placed in an oxygenated ice-cold saline buffer. Transverse 300 μm-thick coronal slices were cut using a vibratome (Leica VT1000S; Leica Microsystems Inc., Deerfield, Ill.) in ice-cold protecting solution oxygenated with 95% O2 and 5% of CO2. Prior to recording, slices were incubated in an artificial cerebrospinal fluid (ACSF) solution containing (in mM): 125 NaCl, 3.5 KCl, 1 CaCl2, 2 MgCl2, 1.25 NaH2PO4, 26 NaHCO3, and 10 glucose, equilibrated at pH 7.3 with 95% O2 and 5% CO2 at room temperature (22-25° C.) for at least 1 h to allow recovery.
Slices were transferred to the recording chamber and perfused with oxygenated recording ACSF at 3 ml/min. Neurons were visualized using infrared differential interference contrast (IR-DIC) microscopy. […] It was not compensated and was monitored during each experiment. […]
Wild type and Tsc1^+/− mice (P14-P16) were anaesthetized, their brains removed rapidly and placed in an oxygenated ice-cold saline buffer. […] The effects of AppCH2ppA administration were monitored post slice administration ex vivo. […]

Tsc1+/− mice = assay: In vivo intracortical EEG recordings of spontaneous seizures in Tsc1+/− mice (mouse model of Tuberous Sclerosis); settings: i.p. injection
Method: This study followed the Institut National de la Santé et de la Recherche Médicale guidelines for animal care. All experiments were performed on postnatal days P9-P20 of inbred C57Bl6 strain of both sexes of Tsc1^mut/wt (Tsc1^+/−) mice issued from breeding of C57Bl6 Tsc1^wt females and Tsc1^mut/wt males Tsc1^mut/wt.
Surgery was performed under isoflurane anesthesia. In brief, the skull of the animal was cleaned of skin and periosteum. The skull was covered by glue and dental cement except for a 4-9 mm^2 window above the somatosensory cortex from one or two hemispheres. Two plastic bars were fixed to the nasal and occipital bones of the pups head by dental cement. After surgery, animals were warmed, and left for an hour for recovery from anesthesia. During recordings, the head was fixed to the frame of the stereotaxic apparatus by attached bars; animals were surrounded by a cotton nest and heated via a thermal pad (36.6° C.-37.7° C.). […]
Electroencephalography (EEG) recordings were performed in non-anesthetized head-restrained Tsc1^+/− and control Tsc1^wt mice. […] Recordings were analyzed off-line using Clampfit and MATLAB software. […] During EEG recordings animals were monitored visually to determine behavioral correlates of each electrographic epileptic discharge. […] Local field potentials were analyzed by the custom-written, MATLAB based programs. […]

[2] = tested on: CA1 pyramidal neurons in hippocampal slices; assay: Ex vivo murine hippocampal slice model of epilepsy (picrotoxin, Mg2+-free); type: cell-based, mouse; settings: epileptic conditions: picrotoxin 100 μM, Mg2+ free perfusion solution; dose response
Method: Slices were prepared and used as described previously (Melnik S, Wright M, Tanner J A, Tsintsadze T, Tsintsadze V, Miller A D, Lozovaya N (2006) Diadenosine polyphosphate analog controls postsynaptic excitation in CA3-CA1 synapses via a nitric oxide-dependent mechanism. J Pharmacol Exp Ther 318 (2):579-588. doi:10.1124/jpet.105.097642).
Slices were prepared as described previously (Melnik S, Wright M, Tanner J A, Tsintsadze T, Tsintsadze V, Miller A D, Lozovaya N (2006) Diadenosine polyphosphate analog controls postsynaptic excitation in CA3-CA1 synapses via a nitric oxide-dependent mechanism. J Pharmacol Exp Ther 318 (2):579-588. doi:10.1124/jpet.105.097642). Addition of picrotoxin (100 μM) and removal of Mg^2+ in the perfusion solution induced spontaneous epileptiform events lasted for 5-10 s (FIG. 7). […] In the continued presence of picrotoxin and Mg^2+ free extracellular solution, bursting at this rate continued for at least 2 h. The effects of AppCH2ppA administration were monitored post slice administration ex vivo (FIGS. 8 and 9a).

| Structure (SMILES) | spontaneous glutamatergic activity from L5 interneurons ([1]; bath administration, 10 μM, Vh=−70 mV, cortical slices from Tsc1+/− mice) | seizure like electrical impulses on individual cortical neurons ([1]; ex vivo, cortical slices, P14-P16 mice) | anti-epileptic effect (spontaneous seizure activity) (Tsc1+/− mice; 30 μM in 200 μl (6 nmol; 300 nmol/kg or 0.25 mg/kg), Tsc1+/− mice) | anti-epileptic effect (spontaneous seizure activity) (Tsc1+/− mice; 100 μM in 200 μl (20 nmol; 1000 nmol/kg or 0.84 mg/kg), Tsc1+/− mice P14-P16) | antiepileptic effect on frequency of epileptiform discharges [2] |
| --- | --- | --- | --- | --- | --- |
| Nc1ncnc2c1ncn2[C@@H]1O[C@H](COP(=O)(O)OP(=O)(O)CP(=O)(O)OP(=O)(O)OC[C@H]2O[C@@H](n3cnc4c(N)ncnc43)C(O)C2O)C(O)C1O (some centres unmarked) [AppCH2ppA] | desensitizes glutamatergic activity relative to control | inhibits seizure like electrical impulses | partial | eliminates seizures virtually completely; also recorded: essentially complete anti-epileptic effect |  |
| Nc1ncnc2c1ncn2[C@@H]1O[C@H](COP(=O)(O)OP(=O)(O)NP(=O)(O)OP(=O)(O)OC[C@H]2O[C@@H](n3cnc4c(N)ncnc43)[C@H](O)[C@@H]2O)[C@@H](O)[C@H]1O [AppNHppA] |  |  |  |  | completely inactive |
